Patent US9725490B2, “ERAP1-derived peptide and use thereof” (TOKUSHIMA UNIVERSITY, priority 2011, dated 2017)
Where a SMILES comes first, the peptide text is derived from it. The star is where a group is joined. Cbz = O=C(OCc1ccccc1)*

Assays:
MCF-7 cells = assay: E2-dependent cell proliferation assay (MTT/CCK-8), MCF-7; assay type: cell-based, human; conditions: 10 nM E2, up to 24 hours
Method: FIG. 6-1 is a diagram illustrating that ERAP1-peptide treatment suppresses ERα-dependent cell proliferation of breast cancer cell lines. (A) and (B) show the results of MTT assay by which the inhibition effect of the ERAP1-peptide in the E2-dependent cell proliferation was evaluated. MCF-7 cells were treated with the ERAP1-peptide (A, B) the ERAP1-scramble peptide (B) or the ERAP1-mutant peptide (B).
FIG. 7-1 is a diagram illustrating that ERAP1-peptide treatment suppresses ERα-dependent cell proliferation of breast cancer cell lines. […] KPL-3C cells were treated with the ERAP1-peptide, the scramble peptide or the mutant peptide. Then, immediately, the cells were stimulated with 10 nM E2 for 24 hours. […] Then, immediately, the cells were stimulated with 10 nM E2. Then, the ERAP1-peptide was added every day for […]. […] The arrow indicates addition of the ERAP1-peptide.
FIG. 7-3 is a diagram illustrating that ERAP1-peptide treatment suppresses ERα-dependent cell proliferation of breast cancer cell lines. […] MCF-7 cells were treated with 10 μM ERAP1-peptide. Then, immediately, the cells were stimulated with 10 nM E2 (white square). Then, 10 μM ERAP1-peptide was added every day for four days (black square).
FIG. 20 is a diagram illustrating the results of evaluations for the influence of the difference of the sequence on E2-dependent cell proliferation suppression effect. […] Then, immediately, the cells were stimulated with E2 for 24 hours.
MCF-7 cells were suspended in MEM (Invitrogen, Carlsbad, Calif., USA) reinforced with 10% FBS (Nichirei Biosciences, Tokyo, Japan), 1% antibiotic/antimycotic solution (Invitrogen), 0.1 mM NEAA (Tnvitrogen), 1 mM sodium pyruvate and 10 μg/ml insulin (Sigma, St. Louis, Mo., USA). Then, the cell suspension was seeded in a 48-well plate (2×10^4 cells/200 μl), a 24-well plate (1×10^5 cells/1 ml), a 6-well plate (5×10^5 cells/2 ml) or 10 cm dish (2×10^6 cells/10 ml). The cells were maintained at 37° C. in humidified atmosphere containing 5% carbon dioxide. On the next day of the seeding, the culture medium was exchanged with phenol red-free DMEM/F12 (Invitrogen) reinforced with FBS, an antibiotic/antimycotic solution, NEAA, sodium pyruvate and insulin. After 24 hours, the cells were treated with 10 nM 17β estradiol (E2, Sigma). The ERAP-1 peptide was added just before the E2 stimulation in the inhibition test.
Using Cell-Counting Kit-8 (CCK-8, Dojindo, Kumamoto, Japan), the cell proliferation assay was performed. […] Then, the absorbance at 450 nm was measured and the number of living cells in each well was calculated.
The cell proliferation assay was evaluated using Cell-Counting Kit-8 (CCK-8, Dojindo, Kumamoto, Japan). […] Then, 100 μl from each well was moved to a 96-well plate, and the absorbance at 450 nm was measured with a microplate reader.

ERα = ERα down-regulation and polyubiquitination in MCF-7 cells; assay type: cell-based, human; conditions: MCF-7, E2 in the presence of MG132, no peptide
Method: FIG. 4-5 is a diagram illustrating that the ERAP1-peptide promotes nuclear translocation of PHB2. […] Then, the protein level and the mRNA level for the expression of ERα were obtained by Western blotting (the upper panel: Protein) and semi-quantitative RT-PCR (the lower panel: mRNA), respectively. β-actin is a loading control for each. […] MCF-7 cells were treated with the ERAP1-peptide and/or E2 in the presence of 1 μM MG-132 for 1 hour. Then, the cell lysate was immunoprecipitated with anti-ERα antibody.
Down-regulation of ERα was evaluated by semi-quantitative reverse transcription PCR. Complete RNA was extracted using RNeasy Mini purification kit (Qiagen) from E2-treated cells in the presence or in the absence of the ERAP1 peptide, and reverse-transcribed into cDNA using Superscript II reverse transcriptase (Invitrogen), oligo dT primer (nvitrogen) and 25 mM dNTP Mixture (Invitrogen). mRNAs of ERα and β-actin were measured with GeneAmp PCR system (Applied Biosystems, Foster, Calif., USA). The primers are as described below: […]

[1] = molecular target: T1, binding of inherent ERAP1 and inherent PHB2/REA (Homo sapiens, UniProt Q99623); assay: Inhibition of ERAP1-PHB2/REA binding in cells, immunoprecipitation-Western blotting; assay type: cell-based; conditions: MCF-7 and KPL-3C cells; 10 μM peptide; 10 nM E2 24 hours
T1 construct: endogenous in cells; host or cells: MCF-7 and KPL-3C breast cancer cells

[2] = test system: transcriptional activity of ERα (AP-1); assay: AP-1-luciferase reporter assay in MCF-7 cells; assay type: cell-based, human; conditions: 10 nM E2 24 hours
Method: (§1) FIG. 3-3 is as diagram illustrating the results of the luciferase assay by which the inhibition effect of the ERAP1-peptide was evaluated. MCF-7 cells temporarily transfected with an ERE-luciferase reporter vector (F) or an AP-1-luciferase reporter vector (F) were treated with the ERAP1-peptide, the scramble peptide or the mutant peptide in the concentrations shown in the […]. Then, immediately, the cells were stimulated with 10 nM E2 for 24 hours. TAM indicates the tamoxifen treatment.
(§2) FIG. 4-3 is a diagram illustrating that the ERAP1-peptide promotes nuclear translocation of PHB2. (C) and (D) are figures that show the results of the luciferase assay by which the inhibition effect of the ERAP1-peptide on the ERα transcriptional activity was evaluated. MCF-7 cells temporarily transfected with an ERE-luciferase reporter vector (C) or an AP-1-luciferase reporter vector (D) were treated with the ERAP1-peptide in the concentrations shown in the figure or 10 nM tamoxifen. Then, immediately, the cells were stimulated with 10 nM E2 thr 24 hours.
(§3) For ERE reporter assay, MCF-7 cells were transfected with ERE reporter (SABiosciences, Frederick, Md., USA) in accordance with the instruction of the manufacturer. For AP-1 reporter assay, MCF-7 cells were transfected with AP-1 reporter (mouse IL-11 promoter comprising two tandem AP-1 sites subcloned into PGL2-basic vector), c-fos, c-Jun and pRL-TK as an internal standard. After 16 hours from the transfection, the culture medium was exchanged with an assay culture medium (Opti-MEM, 10% FBS, 0.1 mM NEAA, 0.1 mM Sodium pyruvate and 10 μg/ml insulin) After 24 hours from the transfection, the cells were treated with E2 and/or the ERAP1-peptide or 24 hours. The cells were harvested, and the activities of luciferase and Renilla-luciferase were evaluated using Promega dual luciferase reporter assay (Tokyo, Japan). In consideration of the transfection efficiency, all of the data were standardized by the activity of Renilla-luciferase.

[3] = test system: transcriptional activity of ERα (ERE); assay: ERE-luciferase reporter assay in MCF-7 cells; assay type: cell-based, human; conditions: 10 nM E2 24 hours
Method: FIG. 3-2 is a diagram illustrating promotion effect of PHB2 nuclear translocation and suppression effect of the transcriptional activation of ER by ERAP1-peptide treatment. (C) illustrates representative images of stained immune cells, showing the localization of the ERAP1-peptide (HA-tagged ERAP1-peptide) and PHB2. MCF-7 cells were treated with 10 μM HA-tagged ERAP1-peptide for 24 hours in the presence or in the absence of 10 nM E2. After the immobilization, the cells were subjected to immunonfluorescent staining using an anti-HA antibody, an anti-PHB2 antibody and DAPI (for discriminating the nucleus). The arrow indicates the nuclear-translocated ERAP1-peptide. […] Then, immediately, the cells were stimulated with 10 nM E2 for 24 hours. TAM indicates the tamoxifen treatment.
as §1, §2, §3

[4] = test system: phosphorylation of ERAP1 and PHB2/REA; assay: PKA inhibition by H-89, immunoblotting of ERAP1 and PHB2/REA phosphorylation, MCF-7; assay type: cell-based, human
Method: Then, the cell lysate solution was immunoprecipitated with anti-ERAP1 antibody. Furthermore, the phosphatase activity of the obtained sample was calculated. […] MCF-7 cells suppressed for expression of PKA or PKB, or both of PKA and PKB by siRNA method, were treated with 10 μM ERAP1 peptide. Then, immediately, the cells were stimulated with 10 nM E2 for 24 hours. […] MCF-7 cells were treated with H-89 for 30 minutes and washed with PBS. Then, the cells were treated with 10 μM ERAP1-PEPTIDE. Then, immediately, the cells were stimulated with 10 nM E2 for 24 hours. […] (S39) is caused. MCF-7 cells suppressed for expression of PKA by siRNA method, were stimulated with 10 nM E2 for 24 hours. In addition, MCF-7 cells were treated with H-89 for 30 minutes and washed with PBS. Then, immediately, the cells were stimulated with 10 nM E2 for 24 hours. […] Then, immediately, the cells were stimulated with 10 nM E2 for 24 hours. […] MCF-7 cells suppressed for expression of PKCα by siRNA method were treated with 10 μM ERAP1 peptide. Then, immediately, the cells were stimulated with 10 nM E2 for 24 hours. The cells were fractionated into cytoplasm and nuclear fractions by specific gravity centrifugation.

[5] = H-89 30 minutes, then E2 24 hours
[6] = comparison with siPKA, increasing dose of H-89

T1 sequence (Q99623 2-299 limits assumed): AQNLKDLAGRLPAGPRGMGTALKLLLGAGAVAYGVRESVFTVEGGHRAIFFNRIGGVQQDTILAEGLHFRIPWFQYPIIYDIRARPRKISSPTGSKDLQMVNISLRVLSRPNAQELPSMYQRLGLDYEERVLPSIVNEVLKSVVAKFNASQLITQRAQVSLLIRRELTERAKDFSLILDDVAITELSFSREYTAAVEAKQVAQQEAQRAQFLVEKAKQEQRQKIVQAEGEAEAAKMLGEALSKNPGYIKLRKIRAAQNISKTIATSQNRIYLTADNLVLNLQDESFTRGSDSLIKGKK

With “ATLSQMLSDLTLQ (SEQ ID NO: 30) (ERAP1 dominant negative peptide) [ERAP1-peptide-2, 161-173 amino acid residues of ERAP1]” the E2-dependent cell proliferation (MCF-7 cells) was “suppressed the E2-dependent cell proliferation in dose-dependent manner”.
`CC(C)C[C@@H](C=O)NC(=O)[C@H](CC(C)C)NC(=O)[C@H](CC(C)C)NC(=O)OCc1ccccc1` [MG132, reference compound] (Cbz-Leu-Leu-Leu-aldehyde) was tested, and the “protein decrease and polyubiquitination of ERα with E2” value (ERα) was “the protein decrease of ERα was suppressed and polyubiquitination of ERα was recognized”.
“AMLSALTLALRQR (SEQ ID NO: 29) (ERAP1-mutant peptide)” was tested, and the “inhibition of the binding of inherent ERAP1 and inherent PHB2/REA” value [1] was “not recognized in any of the cells”, the “transcriptional activity of ERα in AP-1” value [2] was “no change was recognized” and the “transcriptional activity of ERα in ERE” value [3] was “no change was recognized”.
`O=S(=O)(NCCNC/C=C/c1ccc(Br)cc1)c1cccc2cnccc12` [H-89] was tested, and the “phosphorylation of the threonine residue of ERAP1” value [4, 5] was “decreased in dose-dependent manner”, the “phosphorylations of the serine and tyrosine residues of ERAP1” value [4, 5] was “remarkably decreased at 0.5 μM” and the “Ser39 phosphorylation of PHB2/REA after E2 treatment” value [4, 6] was “as the dose of H-89 increased, Ser39 phosphorylation of PHB2/REA also decreased”. For the same compound, the “phosphorylation of the serine residue of ERAP1 after E2 treatment” value [4, 6] was “as the dose of H-89 increased, disappearance of the phosphorylation was confirmed”, the “phosphorylation of Ser39 of PHB2/REA” value ([4]; stimulated by E2 and treated with H-89, no peptide) was “remarkable recovery was recognized” and the “phosphorylation of Ser39 of PHB2/REA” value ([4]; with ERAP-peptide, 20 μM H-89) was “the phosphorylation completely disappeared”.
